Results taken from patent US11384063B2, “Modulators of estrogen receptor proteolysis and associated methods of use” (Arvinas Operations, Inc., priority 2017, dated 2022).
Read-outs that look alike come from different tables or passages of the source.

Molecular target: T1, ERα (Homo sapiens, UniProt P03372)
T1 sequence (P03372 1-595): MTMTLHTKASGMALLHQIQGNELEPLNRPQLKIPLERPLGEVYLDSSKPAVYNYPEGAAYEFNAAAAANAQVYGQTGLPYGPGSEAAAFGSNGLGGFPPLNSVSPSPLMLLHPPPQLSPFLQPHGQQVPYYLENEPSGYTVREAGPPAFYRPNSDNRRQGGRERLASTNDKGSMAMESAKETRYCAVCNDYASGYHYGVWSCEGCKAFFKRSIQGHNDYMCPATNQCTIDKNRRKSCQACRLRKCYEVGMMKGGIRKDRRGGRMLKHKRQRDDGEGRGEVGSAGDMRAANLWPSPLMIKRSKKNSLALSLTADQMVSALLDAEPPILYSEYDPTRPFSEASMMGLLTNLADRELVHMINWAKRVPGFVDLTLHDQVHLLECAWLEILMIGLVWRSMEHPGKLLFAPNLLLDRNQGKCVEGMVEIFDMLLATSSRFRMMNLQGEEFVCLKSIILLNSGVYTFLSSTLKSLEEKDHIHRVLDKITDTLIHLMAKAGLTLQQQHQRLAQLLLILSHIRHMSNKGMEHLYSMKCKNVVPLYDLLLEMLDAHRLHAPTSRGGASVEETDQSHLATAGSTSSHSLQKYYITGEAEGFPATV
Assay: ERE luciferase reporter gene assay in T47D-KBluc cells (target engagement)
Type: cell-based
Design: T47D human breast cancer cells stably transfected with estrogen responsive element/promoter/luciferase reporter gene; host or cells: T47D-KBluc cells
Details: 10% FBS, 24 hours
Description: Chimeric molecules were assessed for target engagement in T47D cells using the commercial kit of ERE luciferase reporter gene assay. In the assay, 10% FBS was included and estrogen level was measured to be 10 pM.
ERE Luciferase Assay for Compounds in Table 1-3.
T47D-KBluc cells (ATCC #CRL_2865, T47D human breast cancer cells stably transfected with estrogen responsive element/promoter/luciferase reporter gene) were seeded into 96-well white opaque plates in RPMI growth medium supplemented with 10% fetal bovine serum and allowed to adhere overnight in a 37° C. humidified incubator. The following day, cells were treated with PROTACs in a 12-point concentration curve (top final concentration of 300 nM with subsequent concentrations being 3-fold less with 2 pM being the lowest concentration in the assay). Each PROTAC was tested independently in two experiments on 96-well plates. After 24 hours, media was removed and lysis buffer was added to the wells. Following lysis, Bright-Glo™ Luciferase Assay Substrate (Prornega, Madison Wis.) was added and the luciferase activity was measured using a Cytation 3 plate reader (TioTek™, Winooski, Vt.). Each compound was assayed in duplicates and the activity was calculated as IC50 using GraphPad Prism software (San Diego, Calif.).

[1] = Table 1 cereblon centric PROTACs, read-out: ER-α Luciferase IC50
[2] = Table 2 VHL centric PROTACs, read-out: IC50

Row | SMILES | IC50 [1] [nM] | IC50 [2] [nM]
1 | O=C1CCC(N2Cc3cc(CCCCC(=O)N4CCN(CCOc5ccc(Oc6c(-c7ccc(Br)cc7)sc7cc(O)ccc67)cc5)CC4)ccc3C2=O)C(=O)N1 (stereo not shown) [Compound 47] | 0.86 | 
2 | O=C1CCC(N2Cc3cc(OCCCOCCCOCCCCOc4ccc(Oc5c(-c6ccc(Br)cc6)sc6cc(O)ccc56)cc4)ccc3C2=O)C(=O)N1 (stereo not shown) [Compound 48] | 8.3 | 
3 | O=C1CCC(N2C(=O)c3ccc(N4CCN(CCCOc5ccc(Oc6c(-c7ccc(Br)cc7)sc7cc(O)ccc67)cc5)CC4)cc3C2=O)C(=O)N1 (stereo not shown) [Compound 49] | 17.7 | 
4 | O=C1CCC(N2Cc3cc(OC4CC5(CCN(CCOc6ccc(Oc7c(-c8ccc(Br)cc8)sc8cc(O)ccc78)cc6)CC5)C4)ccc3C2=O)C(=O)N1 (stereo not shown) [Compound 50] | 2.2 | 
5 | O=C1CCC(N2C(=O)c3ccc(N4CCN(CCCCCCOc5ccc(Oc6c(-c7ccc(Br)cc7)sc7cc(O)ccc67)cc5)CC4)cc3C2=O)C(=O)N1 (stereo not shown) [Compound 51] | 26.2 | 
6 | CC(COc1ccc(Oc2c(-c3ccc(Br)cc3)sc3cc(O)ccc23)cc1)N1CCN(CCCCc2ccc3c(c2)CN(C2CCC(=O)NC2=O)C3=O)CC1 (stereo not shown) [Compound 53] | 0.6 | 
7 | O=C1CCC(N2Cc3cc(N4CCN(CCCCCCOc5ccc(Oc6c(-c7ccc(Br)cc7)sc7cc(O)ccc67)cc5)CC4)ccc3C2=O)C(=O)N1 (stereo not shown) [Compound 54] | 12.1 | 
8 | O=C1CCC(N2Cc3cc(N4CCN(CCOc5ccc(Oc6c(-c7ccc(Br)cc7)sc7cc(O)ccc67)cc5)CC4)ccc3C2=O)C(=O)N1 (stereo not shown) [Compound 55] | 1.8 | 
9 | O=C1CCC(N2C(=O)c3ccc(N4CCN(CCOc5ccc(Oc6c(-c7ccc(Br)cc7)sc7cc(O)ccc67)cc5)CC4)cc3C2=O)C(=O)N1 (stereo not shown) [Compound 56] | 10.6 | 
10 | O=C1CCC(N2Cc3cc(N4CCN(CCCCOc5ccc(Oc6c(-c7ccc(Br)cc7)sc7cc(O)ccc67)cc5)CC4)ccc3C2=O)C(=O)N1 (stereo not shown) [Compound 58] | 6.6 | 
11 | O=C1CCC(N2Cc3cc(N4CCN(CCCOc5ccc(Oc6c(-c7ccc(Br)cc7)sc7cc(O)ccc67)cc5)CC4)ccc3C2=O)C(=O)N1 (stereo not shown) [Compound 59] | 3.6 | 
12 | O=C1CCC(N2C(=O)c3ccc(N4CCN(CCCCOc5ccc(Oc6c(-c7ccc(Br)cc7)sc7cc(O)ccc67)cc5)CC4)cc3C2=O)C(=O)N1 (stereo not shown) [Compound 60] | 29.9 | 
13 | O=C1CCC(N2C(=O)c3ccc(NCCC4CCN(CCOc5ccc(Oc6c(-c7ccc(Br)cc7)sc7cc(O)ccc67)cc5)CC4)cc3C2=O)C(=O)N1 (stereo not shown) [Compound 62] | 8.5 | 
14 | O=C(CC1CCN(CCOc2ccc(Oc3c(-c4ccc(Br)cc4)sc4cc(O)ccc34)cc2)CC1)NCc1ccc2c(c1)CN(C1CCC(=O)NC1=O)C2=O (stereo not shown) [Compound 63] | 0.82 | 
15 | O=C1CCC(N2Cc3cc(NCCCC4CCN(CCOc5ccc(Oc6c(-c7ccc(Br)cc7)sc7cc(O)ccc67)cc5)CC4)ccc3C2=O)C(=O)N1 (stereo not shown) [Compound 64] | 2.9 | 
16 | O=C1CCC(N2C(=O)c3ccc(OCCOCCOc4ccc(Oc5c(-c6ccc(Br)cc6)sc6cc(O)ccc56)cc4)cc3C2=O)C(=O)N1 (stereo not shown) [Compound 66] | 5.8 | 
17 | O=C1CCC(N2C(=O)c3ccc(NCCOCCOCCOc4ccc(Oc5c(-c6ccc(Br)cc6)sc6cc(O)ccc56)cc4)cc3C2=O)C(=O)N1 (stereo not shown) [Compound 67] | 11.4 | 
18 | O=C1CCC(N2C(=O)c3ccc(NCCCC4CCN(CCOc5ccc(Oc6c(-c7ccc(Br)cc7)sc7cc(O)ccc67)cc5)CC4)cc3C2=O)C(=O)N1 (stereo not shown) [Compound 68] | 5.9 | 
19 | O=C1CCC(N2C(=O)c3ccc(N4CCN(CCCCCCCOc5ccc(Oc6c(-c7ccc(Br)cc7)sc7cc(O)ccc67)cc5)CC4)cc3C2=O)C(=O)N1 (stereo not shown) [Compound 69] | 103 | 
20 | O=C1CCC(N2C(=O)c3ccc(CCCOC4CCN(CCOc5ccc(Oc6c(-c7ccc(Br)cc7)sc7cc(O)ccc67)cc5)CC4)cc3C2=O)C(=O)N1 (stereo not shown) [Compound 70] | 1.6 | 

Row | SMILES | IC50 [1] [nM] | IC50 [2] [nM]
21 | O=C1CCC(N2Cc3cc(NCCCN4CCN(CCOc5ccc(Oc6c(-c7ccc(Br)cc7)sc7cc(O)ccc67)cc5)CC4)ccc3C2=O)C(=O)N1 (stereo not shown) [Compound 71] | 0.94 | 
22 | O=C1CCC(N2Cc3cc(NCCOCCOc4ccc(Oc5c(-c6ccc(Br)cc6)sc6cc(O)ccc56)cc4)ccc3C2=O)C(=O)N1 (stereo not shown) [Compound 72] | 3.1 | 
23 | O=C1CCC(N2Cc3cc(CCCOC4CCN(CCOc5ccc(Oc6c(-c7ccc(Br)cc7)sc7cc(O)ccc67)cc5)CC4)ccc3C2=O)C(=O)N1 (stereo not shown) [Compound 73] | 1.3 | 
24 | O=C1CCC(N2C(=O)c3ccc(NCCOCCOc4ccc(Oc5c(-c6ccc(Br)cc6)sc6cc(O)ccc56)cc4)cc3C2=O)C(=O)N1 (stereo not shown) [Compound 75] | 6.6 | 
25 | O=C1CCC(N2C(=O)c3ccc(OCCCOCCOc4ccc(Oc5c(-c6ccc(Br)cc6)sc6cc(O)ccc56)cc4)cc3C2=O)C(=O)N1 (stereo not shown) [Compound 76] | 17 | 
26 | O=C1CCC(N2C(=O)c3ccc(OCCCOCCCOc4ccc(Oc5c(-c6ccc(Br)cc6)sc6cc(O)ccc56)cc4)cc3C2=O)C(=O)N1 (stereo not shown) [Compound 77] | 34.1 | 
27 | O=C1CCC(N2C(=O)c3ccc(OCCCOCCOCCOc4ccc(Oc5c(-c6ccc(Br)cc6)sc6cc(O)ccc56)cc4)cc3C2=O)C(=O)N1 (stereo not shown) [Compound 79] | 27.8 | 
28 | O=C1CCC(N2C(=O)c3ccc(OCCCOCCCOCCCOc4ccc(Oc5c(-c6ccc(Br)cc6)sc6cc(O)ccc56)cc4)cc3C2=O)C(=O)N1 (stereo not shown) [Compound 80] | 37.4 | 
29 | O=C1CCC(N2C(=O)c3ccc(NCCCOCCOc4ccc(Oc5c(-c6ccc(Br)cc6)sc6cc(O)ccc56)cc4)cc3C2=O)C(=O)N1 (stereo not shown) [Compound 81] | 8.4 | 
30 | O=C1CCC(N2C(=O)c3ccc(NCCCOCCCOc4ccc(Oc5c(-c6ccc(Br)cc6)sc6cc(O)ccc56)cc4)cc3C2=O)C(=O)N1 (stereo not shown) [Compound 82] | 32.2 | 
31 | O=C1CCC(N2C(=O)c3ccc(NCCCOCCOCCOc4ccc(Oc5c(-c6ccc(Br)cc6)sc6cc(O)ccc56)cc4)cc3C2=O)C(=O)N1 (stereo not shown) [Compound 83] | 44.9 | 
32 | O=C1CCC(N2C(=O)c3ccc(NCCCOCCCOCCCOc4ccc(Oc5c(-c6ccc(Br)cc6)sc6cc(O)ccc56)cc4)cc3C2=O)C(=O)N1 (stereo not shown) [Compound 84] | 30.9 | 
33 | O=C1CCC(N2Cc3cc(NCCCOCCOc4ccc(Oc5c(-c6ccc(Br)cc6)sc6cc(O)ccc56)cc4)ccc3C2=O)C(=O)N1 (stereo not shown) [Compound 85] | 6 | 
34 | O=C1CCC(N2Cc3cc(NCCOCCOCCOc4ccc(Oc5c(-c6ccc(Br)cc6)sc6cc(O)ccc56)cc4)ccc3C2=O)C(=O)N1 (stereo not shown) [Compound 86] | 11 | 
35 | O=C1CCC(N2C(=O)c3ccc(OCCCOCCCOCCOc4ccc(Oc5c(-c6ccc(Br)cc6)sc6cc(O)ccc56)cc4)cc3C2=O)C(=O)N1 (stereo not shown) [Compound 87] | 21.5 | 
36 | Cc1ncsc1-c1ccc([C@H](C)NC(=O)[C@@H]2C[C@@H](O)CN2C(=O)[C@@H](NC(=O)COCCCOCCCOc2ccc(Oc3c(-c4ccc(F)cc4)sc4cc(O)ccc34)cc2)C(C)(C)C)cc1 [Compound 112, (2S,4R)-1-((S)-2-(2-(3-(3-(4-(2-(4-fluorophenyl)-6-hydroxybenzo[b]thiophen-3-yloxy)phenoxy)propoxy)propoxy)acetamido)-3,3-dimethylbutanoyl)-4-hydroxy-N—((S)-1-(4-(4-methylthiazol-5-yl)phenyl)ethyl)pyrrolidine-2-carboxamide] |  | 15.8
37 | Cc1ncsc1-c1ccc([C@H](C)NC(=O)[C@@H]2C[C@@H](O)CN2C(=O)[C@@H](NC(=O)COCCOCCCOc2ccc(Oc3c(-c4ccc(F)cc4)sc4cc(O)ccc34)cc2)C(C)(C)C)cc1 [Compound 113, (2S,4R)-1-((S)-2-(2-(2-(3-(4-(2-(4-fluorophenyl)-6-hydroxybenzo[b]thiophen-3-yloxy)phenoxy)propoxy)ethoxy)acetamido)-3,3-dimethylbutanoyl)-4-hydroxy-N—((S)-1-(4-(4-methylthiazol-5-yl)phenyl)ethyl)pyrrolidine-2-carboxamide] |  | 23.7
38 | Cc1ncsc1-c1ccc(CNC(=O)[C@@H]2C[C@@H](O)CN2C(=O)[C@@H](NC(=O)CCCC(=O)N2CCN(CCOc3ccc(Oc4c(-c5ccc(F)cc5)sc5cc(O)ccc45)cc3)CC2)C(C)(C)C)cc1 [Compound 114] |  | 22
39 | Cc1ncsc1-c1ccc(CNC(=O)[C@@H]2C[C@@H](O)CN2C(=O)[C@@H](NC(=O)CCC(=O)N2CC3CN(CCOc4ccc(Oc5c(-c6ccc(F)cc6)sc6cc(O)ccc56)cc4)CC3C2)C(C)(C)C)cc1 (stereo partly shown) [Compound 115] |  | > 100
40 | Cc1ncsc1-c1ccc(CNC(=O)[C@@H]2C[C@@H](O)CN2C(=O)[C@@H](NC(=O)COCCO[C@@H]2CCN(CCOc3ccc(Oc4c(-c5ccc(F)cc5)sc5cc(O)ccc45)cc3)C2)C(C)(C)C)cc1 [Compound 116] |  | 3
